# In patent US11981661B2, “Heterocyclic compounds” (Hoffmann-La Roche Inc., priority 2020, dated 2024):
# pIC50: −log10 of the molar value.
# Biological target: T1, MAGL (Homo sapiens, UniProt Q99685)
# T1 sequence (Q99685 1-303): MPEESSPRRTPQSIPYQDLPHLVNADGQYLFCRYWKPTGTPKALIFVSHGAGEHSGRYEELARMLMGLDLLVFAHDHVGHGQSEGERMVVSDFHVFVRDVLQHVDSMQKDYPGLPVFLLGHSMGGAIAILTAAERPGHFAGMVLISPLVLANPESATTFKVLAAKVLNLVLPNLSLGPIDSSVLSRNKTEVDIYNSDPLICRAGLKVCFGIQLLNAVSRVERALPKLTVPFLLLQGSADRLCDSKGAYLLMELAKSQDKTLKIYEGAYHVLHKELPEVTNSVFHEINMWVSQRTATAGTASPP
# Assay: 2-AG assay (MAGL inhibitory activity, hydrolysis of 2-arachidonoylglycerol followed by mass spectrometry)
# Type: biochemical
# Conditions: 50 pM MAGL, 8 μM 2-arachidonoylglycerol, 15 min preincubation, 30 min incubation at RT, concentration range 12.5 μM to 0.8 pM
# Method: Compounds were profiled for MAGL inhibitory activity by determining the enzymatic activity by following the hydrolysis of the natural substrate 2-arachidonoylglycerol resulting in arachidonic acid, which can be followed by mass spectrometry. This assay is hereinafter abbreviated “2-AG assay”.
# The 2-AG assay was carried out in 384 well assay plates (PP, Greiner Cat #784201) in a total volume of 20 μL. Compound dilutions were made in 100% DMSO (VWR Chemicals 23500.297) in a polypropylene plate in 3-fold dilution steps to give a final concentration range in the assay from 12.5 μM to 0.8 pM. 0.25 μL compound dilutions (100% DMSO) were added to 9 μL MAGL in assay buffer (50 mM TRIS (GIBCO, 15567-027), 1 mM EDTA (Fluka, 03690-100 mL), 0.01% (v/v) Tween. After shaking, the plate was incubated for 15 min at RT. To start the reaction, 10 μL 2-arachidonoylglycerol in assay buffer was added. The final concentrations in the assay was 50 pM MAGL and 8 μM 2-arachidonoylglyerol. After shaking and 30 min incubation at RT, the reaction was quenched by the addition of 40 μL of ACN containing 4 μM of d8-arachidonic acid. The amount of arachidonic acid was traced by an online SPE system (Agilent Rapidfire) coupled to a triple quadrupole mass spectrometer (Agilent 6460). A C18 SPE cartridge (G9205A) was used in an ACN/water liquid setup. The mass spectrometer was operated in negative electrospray mode following the mass transitions 303.1→259.1 for arachidonic acid and 311.1→267.0 for d8-arachidonic acid. The activity of the compounds was calculated based on the ratio of intensities [arachidonic acid/d8-arachidonic acid].
row,pIC50,SMILES
1,7.55,"O=C1N[C@H](CCC(=O)N2CC(c3cnc(N4CC5(CCCC5)C4)cn3)C2)CO1 [Example 140, (4R)-4-[3-[3-[5-(2-Azaspiro[3.4]octan-2-yl)pyrazin-2-yl]azetidin-1-yl]-3-oxo-propyl]oxazolidin-2-one]"
2,6.80,"O=C1NCC(CCC(=O)N2CC(c3ccc(C4(C(F)(F)F)CC4)cc3)C2)N1 (stereo not shown) [Example 214, 4-[3-Oxo-3-[3-[4-[1-(trifluoromethyl)cyclopropyl]phenyl]azetidin-1-yl]propyl]imidazolidin-2-one]"
3,6.54,"O=C1COCC(CCC(=O)N2CC(OCc3ccc(C(F)(F)F)cc3F)C2)N1 (single isomer, unassigned; (+)) [Example 51, (+)-5-[3-[3-[[2-Fluoro-4-(trifluoromethyl)phenyl]methoxy]azetidin-1-yl]-3-oxo-propyl]morpholin-3-one]"
4,7.92,"O=C1N[C@H](CCC(=O)N2CC(c3cnc(NCC4(C(F)(F)F)CC4)cn3)C2)CO1 [Example 176, (4R)-4-[3-Oxo-3-[3-[5-[[1-(trifluoromethyl)cyclopropyl]methylamino]pyrazin-2-yl]azetidin-1-yl]propyl] oxazolidin-2-one]"
5,6.86,"O=C1N[C@H](CCC(=O)N2CC(c3cnc(N4CCC(C(F)(F)F)C4)nc3)C2)CO1 (single isomer, unassigned) [Example 208, (−)- or (+)-(4R)-4-[3-Oxo-3-[3-[2-[3-(trifluoromethyl)pyrrolidin-1-yl]pyrimidin-5-yl]azetidin-1-yl]propyl]oxazolidin-2-one]"
6,8.70,"CS(=O)(=O)c1cc(Cl)ccc1-c1ccc(C2CN(C(=O)CC[C@@H]3COC(=O)N3)C2)nc1 [Example 121, (4R)-4-[3-[3-[5-(4-Chloro-2-methylsulfonyl-phenyl)-2-pyridyl]azetidin-1-yl]-3-oxo-propyl]oxazolidin-2-one]"
7,7.89,"O=C1N[C@H](CCC(=O)N2CC(c3ccc(N4CC5(CCCC5)C4)nc3)C2)CO1 [Example 142, (4R)-4-[3-[3-[6-(2-Azaspiro[3.4]octan-2-yl)-3-pyridyl]azetidin-1-yl]-3-oxo-propyl]oxazolidin-2-one]"
8,≤ 4.90,"CC1(CCC(=O)N2CC(OCc3ccc(C(F)(F)F)cc3F)C2)CCC(=O)N1 (single isomer, unassigned) [Example 13, (−)- or (+)-5-[3-[3-[[2-Fluoro-4-(trifluoromethyl)phenyl]methoxy]azetidin-1-yl]-3-oxo-propyl]-5-methyl-pyrrolidin-2-one]"
9,7.68,"O=C1N[C@H](CCC(=O)N2CC(c3ccc(C4(CO)CC4)cc3)C2)CO1 [Example 171, (4R)-4-[3-[3-[4-[1-(Hydroxy-methyl)cyclo-propyl]phenyl]azetidin-1-yl]-3-oxo-propyl] oxazolidin-2-one]"
10,9.74,"O=C1N[C@H](CCC(=O)N2CC(c3ccc(-c4ccc(Cl)cc4Cl)cn3)C2)CO1 [Example 114, (4R)-4-[3-[3-[5-(2,4-Dichloro-phenyl)-2-pyridyl]azetidin-1-yl]-3-oxo-propyl]oxazolidin-2-one]"
11,6.61,"O=C1N[C@H](CCC(=O)N2CC3(CC(Cc4cnc(C(F)(F)F)nc4)C3)C2)CO1 [Example 182, (4R)-4-[3-Oxo-3-[6-[[2-(trifluoro-methyl)pyrimidin-5-yl]methyl]-2-azaspiro[3.3]heptan-2-yl]propyl] oxazolidin-2-one]"
12,7.15,"CS(=O)(=O)c1ccc(-c2cnc(C3CN(C(=O)CC[C@@H]4COC(=O)N4)C3)cn2)c(Cl)c1 [Example 110, (4R)-4-[3-[3-[5-(2-Chloro-4-methylsulfonyl-phenyl)pyrazin-2-yl]azetidin-1-yl]-3-oxo-propyl]oxazolidin-2-one]"
13,7.48,"O=C1N[C@H](COC(=O)N2CC(c3ccc(Oc4ccccc4Cl)nc3)C2)CO1 [Example 60, [(4S)-2-Oxooxazolidin-4-yl]methyl 3-[6-(2-chlorophenoxy)-3-pyridyl]azetidine-1-carboxylate]"
14,8.05,"O=C1N[C@H](CCC(=O)N2CC3(CC(Cc4ccc(C(F)(F)F)nc4)C3)C2)CO1 [Example 125, (4R)-4-[3-Oxo-3-[6-[[6-(trifluoro-methyl)-3-pyridyl]methyl]-2-azaspiro[3.3]heptan-2-yl]propyl] oxazolidin-2-one]"
15,6.38,"O=C1N[C@H](CCC(=O)N2CC(c3ccc(C4(C(F)(F)F)CC4)nc3)C2)CO1 [Example 102, (4R)-4-[3-Oxo-3-[3-[6-[1-(trifluoro-methyl)cyclopropyl]-3-pyridyl]azetidin-1-yl]propyl]oxazolidin-2-one]"
16,6.60,"O=C1N[C@H](CCC(=O)N2CC(c3ccc(C4CCS(=O)(=O)C4)cc3)C2)CO1 (stereo partly drawn) [Example 130, (4R)-4-[3-[3-[4-(1,1-Dioxothiolan-3-yl)phenyl]azetidin-1-yl]-3-oxo-propyl] oxazolidin-2-one]"
17,6.49,"O=C(CCCc1cnn[nH]1)N1CC(c2ccc(N3CC(OCC(F)(F)F)C3)cc2)C1 [Example 46, 4-(1H-Triazol-5-yl)-1-[3-[4-[3-(2,2,2-trifluoroethoxy)azetidin-1-yl]phenyl]azetidin-1-yl]butan-1-one]"
18,8.70,"O=C1N[C@H](CCC(=O)N2CC3(CC(Cc4cccc(S(=O)(=O)C(F)(F)F)c4)C3)C2)CO1 [Example 186, (4R)-4-[3-Oxo-3-[6-[[3-(trifluoro-methylsulfonyl)phenyl]methyl]-2-azaspiro[3.3]heptan-2-yl]propyl] oxazolidin-2-one]"
19,6.42,"O=C1N[C@@H](CCC(=O)N2CC(c3ccc(-c4ccc(F)cc4F)cc3)C2)CO1 [Example 23, (4S)-4-[3-[3-[4-(2,4-Difluorophenyl)phenyl]azetidin-1-yl]-3-oxo-propyl]oxazolidin-2-one]"
20,7.03,"CS(=O)(=O)c1ccc(CC2CC3(C2)CN(C(=O)CC[C@@H]2COC(=O)N2)C3)cc1 [Example 180, (4R)-4-[3-[6-[(4-Methyl-sulfonylphenyl)methyl]-2-azaspiro[3.3]heptan-2-yl]-3-oxo-propyl]oxazolidin-2-one]"
21,5.57,"CC1(CCC(=O)N2CC(c3ccc(Oc4cccc(Cl)c4)nc3)C2)CCC(=O)N1 (single isomer, unassigned) [Example 18, (+)- or (−)-5-[3-[3-[6-(3-Chlorophenoxy)-3-pyridyl]azetidin-1-yl]-3-oxo-propyl]-5-methyl-pyrrolidin-2-one]"
22,7.80,"O=C1N[C@H](CCC(=O)N2CC3(CCC(Cc4ccc(C(F)(F)F)cn4)CC3)C2)CO1 [Example 189, (4R)-4-[3-Oxo-3-[7-[[5-(trifluoro-methyl)-2-pyridyl]methyl]-2-azaspiro[3.5]nonan-2-yl]propyl] oxazolidin-2-one]"
23,6.01,"N#CC1(c2ccc(C3CN(C(=O)CC[C@@H]4COC(=O)N4)C3)cn2)CCC1 [Example 78, 1-[5-[1-[3-[(4R)-2-Oxooxazolidin-4-yl]propanoyl]azetidin-3-yl]-2-pyridyl]cyclobutane-carbonitrile]"
24,6.24,"O=C1N[C@H](CCC(=O)N2CCC(CNS(=O)(=O)c3ccc(C(F)(F)F)cc3)CC2)CO1 [Example 158, N-[[1-[3-[(4R)-2-Oxooxazolidin-4-yl]propanoyl]-4-piperidyl]methyl]-4-(trifluoro-methyl)benzene-sulfonamide]"
25,7.92,"CS(=O)(=O)c1cc(Cl)ncc1-c1ccc(C2CN(C(=O)CC[C@@H]3COC(=O)N3)C2)cc1 [Example 118, (4R)-4-[3-[3-[4-(6-Chloro-4-methylsulfonyl-3-pyridyl)phenyl]azetidin-1-yl]-3-oxo-propyl] oxazolidin-2-one]"
